Source: ChEMBL document CHEMBL4339189, “Dissymmetric pyridyl-substituted 3,5-bis(arylidene)-4-piperidones as anti-hepatoma agents by inhibiting NF-κB pathway activation” (Eur J Med Chem, 2019)
Calls of active or inactive are those of the source. The calls are words filed in the database; no cut-off is given here.

Columns and labels:
RAW264.7 [1] = experiment: Antiinflammatory activity in mouse RAW264.7 cells assessed as inhibition of LPS-stimulated IL-6 production 6.0 uM preincubated for 2 hrs followed by LPS stimulaton measured after 22 hrs by ELISA relative to control; type: functional
QGY-7703 = experiment: Cytotoxicity against human QGY7703 cells assessed as reduction in cell viability incubated for 24 hrs by MTT assay; type: functional, cell-based; settings: QGY-7703, 24 h
RAW264.7 [2] = experiment: Antiinflammatory activity in mouse RAW264.7 cells assessed as inhibition of LPS-stimulated TNF-alpha production at 6.0 uM preincubated for 2 hrs followed by LPS stimulaton measured after 22 hrs by ELISA relative to control; type: functional
RAW264.7 [3] = experiment: Cytotoxicity against mouse RAW264.7 cells assessed as reduction in cell viability at 6.0 uM incubated for 24 hrs by MTT assay; type: cell-based; settings: raw264.7, 24 h
L02 = experiment: Cytotoxicity against human LO2 cells assessed as reduction in cell viability incubated for 24 hrs by MTT assay; type: cell-based; settings: L02, 24 h
HepG2 = experiment: Cytotoxicity against human HepG2 cells assessed as reduction in cell viability incubated for 24 hrs by MTT assay; type: functional, cell-based; settings: HepG2, 24 h
[4] = Cytotoxicity against human HHL5 cells assessed as reduction in cell viability incubated for 24 hrs by MTT assay; type: cell-based; settings: HHL-5, 24 h
SMMC-7721 = experiment: Cytotoxicity against human SMMC7721 cells assessed as reduction in cell viability incubated for 24 hrs by MTT assay; type: functional, cell-based; settings: SMMC-7721, 24 h

Compound | inhibition (INH) (RAW264.7 [1]) [%] | IC50 (QGY-7703) [µM] | inhibition at 6 µM (RAW264.7 [2]) [%] | Activity (RAW264.7 [3]) | IC50 (L02) [µM] | IC50 (HepG2) [µM] | IC50 [4] [µM] | IC50 (SMMC-7721) [µM] | inhibition (RAW264.7 [1]) | inhibition (RAW264.7 [2])
CN1C/C(=C\c2cccnc2)C(=O)/C(=C/c2ccccc2C(F)(F)F)C1 | <30 | 2.91 | < 30 | Non-Toxic | 14.1 | 2.55 | 11.1 | 3.9 |  | 
O=C1/C(=C/c2ccncc2)CN(S(=O)(=O)c2ccc(Br)cc2)C/C1=C\c1ccccc1F |  | 11.5 |  | Non-Toxic | 19.4 | 9.3 | > 20 | 12.6 | inactive | inactive
N#Cc1ccc(S(=O)(=O)N2C/C(=C\c3ccncc3)C(=O)/C(=C/c3ccccc3F)C2)cc1 |  | 8.5 |  | Non-Toxic | > 20 | 4.5 | 15.7 | 16.2 | Active | Active
O=C1/C(=C/c2cccnc2)CN(S(=O)(=O)c2ccc(C(F)(F)F)cc2)C/C1=C\c1ccccc1F |  | 4.5 |  | Non-Toxic | 11.3 | 2.4 | 14.3 | 7.9 | Active | Active
CN1C/C(=C\c2ccncc2)C(=O)/C(=C/c2cc([N+](=O)[O-])ccc2F)C1 | <30 | 5.7 | < 30 | Non-Toxic | 17.6 | 5.2 | 15.2 | 14.7 |  | 
O=C1/C(=C/c2ccncc2)CN(S(=O)(=O)c2ccc(C(F)(F)F)cc2)C/C1=C\c1ccccc1F |  | 9.5 |  | Non-Toxic | 18.6 | 4.03 | 13.4 | 11.1 | Active | Active
Cc1ccc(S(=O)(=O)N2C/C(=C\c3cccnc3)C(=O)/C(=C/c3ccccc3C(F)(F)F)C2)cc1 |  | 6.17 |  | Non-Toxic | 12.3 | 2.93 | 11.1 | 6.7 | Active | Active
O=C1/C(=C/c2ccncc2)CN(S(=O)(=O)c2ccc(F)cc2)C/C1=C\c1ccccc1F |  | 9.1 |  | Non-Toxic | 15.6 | 20.3 | 15.4 | > 20 | inactive | inactive
O=C1/C(=C/c2cccnc2)CN(S(=O)(=O)c2ccc(Cl)cc2)C/C1=C\c1ccccc1F |  | 12.1 |  | Non-Toxic | > 20 | 12.4 | > 20 | 16.1 | inactive | inactive
CN1C/C(=C\c2ccncc2)C(=O)/C(=C/c2ccccc2C(F)(F)F)C1 | <30 | 4.5 | < 30 | Non-Toxic | 15.8 | 3.3 | 10.4 | 4.1 |  | 
O=C1/C(=C/c2ccncc2)CNC/C1=C\c1ccccc1C(F)(F)F |  | 4.9 |  | Non-Toxic | 13.4 | 6.13 | 9.87 | 4.5 | Active | Active
O=C1/C(=C/c2cccnc2)CN(S(=O)(=O)c2ccc(F)cc2)C/C1=C\c1ccccc1C(F)(F)F |  | 6.03 |  | Non-Toxic | 16.1 | 2.34 | 12.1 | 6.39 | Active | Active
CN1C/C(=C\c2ccncc2)C(=O)/C(=C/c2ccc(C#N)cc2)C1 |  | 7.4 |  | Non-Toxic | 14 | 13.9 | 11.5 | 18.5 | Active | Active
O=C1/C(=C/c2cccnc2)CN(S(=O)(=O)c2ccc([N+](=O)[O-])cc2)C/C1=C\c1ccccc1F |  | 5.6 |  | Non-Toxic | > 20 | 12.8 | > 20 | > 20 | inactive | inactive
CN1C/C(=C\c2ccncc2)C(=O)/C(=C/c2ccccc2F)C1 |  | 4.9 |  | Non-Toxic | 14.9 | 4.6 | 18.5 | 7 | Active | Active
O=C1/C(=C/c2cccnc2)CNC/C1=C\c1ccccc1C(F)(F)F |  | 3.8 |  | Non-Toxic | 11.3 | 5.02 | 10.4 | 5.1 | Active | Active
O=C1/C(=C/c2ccncc2)CN(S(=O)(=O)c2ccccc2)C/C1=C\c1ccccc1F |  | 8.4 |  | Non-Toxic | 15.9 | 5.8 | > 20 | 17.5 | inactive | inactive
O=C1/C(=C/c2ccncc2)CN(S(=O)(=O)c2ccc(Cl)cc2)C/C1=C\c1ccccc1F |  | 12.5 |  | Non-Toxic | 15 | 5.3 | 11.5 | 9.6 | Active | Active
O=C1/C(=C/c2cccnc2)CN(S(=O)(=O)c2ccccc2)C/C1=C\c1ccccc1F |  | 4.8 |  | Non-Toxic | 15.3 | 8.21 | 14 | 19.1 | inactive | inactive
O=C1/C(=C/c2cccnc2)CN(S(=O)(=O)c2ccccc2)C/C1=C\c1ccccc1C(F)(F)F |  | 6.24 |  | Non-Toxic | 12.5 | 5.37 | 14.3 | 10.9 | Active | Active
N#Cc1ccc(S(=O)(=O)N2C/C(=C\c3cccnc3)C(=O)/C(=C/c3ccccc3C(F)(F)F)C2)cc1 |  | 6.15 |  | Non-Toxic | 13.2 | 5.06 | 11.2 | 9.65 | Active | Active
CN1C/C(=C\c2ccncc2)C(=O)/C(=C/c2ccc(C(F)(F)F)cc2)C1 |  | 10.4 |  | Non-Toxic | 17.4 | 8.2 | 12.2 | 17.7 | Active | Active
CC(=O)Nc1ccc(S(=O)(=O)N2C/C(=C\c3cccnc3)C(=O)/C(=C/c3ccccc3F)C2)cc1 |  | 9.64 |  | Non-Toxic | 15.6 | 4.56 | 14.2 | 10.9 | Active | Active
O=C1/C(=C/c2cccnc2)CN(S(=O)(=O)c2ccc([N+](=O)[O-])cc2)C/C1=C\c1ccccc1C(F)(F)F |  | 7.66 |  | Non-Toxic | 15.7 | 9.37 | 14.1 | 15.9 | Active | Active
COc1ccc(/C=C2\CN(C)C/C(=C\c3cccnc3)C2=O)c(OC)c1OC |  | 2.63 |  | Non-Toxic | 13.6 | 5.16 | 11.6 | 13.7 | Active | Active
Cc1ccc(S(=O)(=O)N2C/C(=C\c3ccncc3)C(=O)/C(=C/c3ccccc3F)C2)cc1 |  | > 20 |  | Non-Toxic | > 20 | 9.7 | 13.3 | 13.2 | inactive | inactive
O=C1/C(=C/c2cccnc2)CN(S(=O)(=O)c2ccc(Cl)cc2)C/C1=C\c1ccccc1C(F)(F)F |  | 3.44 |  | Non-Toxic | 11.9 | 3.62 | 11.1 | 4.88 | Active | Active
COc1ccc(/C=C2\CN(C)C/C(=C\c3ccncc3)C2=O)c(OC)c1OC |  | 8.35 |  | Non-Toxic | 15.6 | 3.56 | 11.9 | 9.08 | Active | Active
CC(=O)Nc1ccc(S(=O)(=O)N2C/C(=C\c3cccnc3)C(=O)/C(=C/c3ccccc3C(F)(F)F)C2)cc1 |  | 5.38 |  | Non-Toxic | 15.3 | 4.33 | > 20 | 9.83 | Active | Active
CN1C/C(=C\c2cccnc2)C(=O)/C(=C/c2ccccc2F)C1 |  | 4.47 |  | Non-Toxic | 15.9 | 4.81 | 13.5 | 5.42 | Active | Active
